# Measurements taken from PubChem BioAssay (NCI).
#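 Following 48 hours of exposure in 96-well plates, responses at five concentrations were used to interpolate endpoints linearly. The concentration for 50% growth inhibition is given as GI50. At the TGI there is no net growth.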
# What was measured:
# Test in all cases: NCI-60 cell line screen, 48 h
# [1] = system: HCT-15 colon
# [2] = system: A498 renal
# [3] = system: OVCAR-3 ovarian
# [4] = system: UACC-257 melanoma
# [5] = system: OVCAR-8 ovarian
# [6] = system: UACC-62 melanoma
# [7] = system: EKVX NSCLC
# [8] = system: TK-10 renal
# [9] = system: NCI-H460 lung
# [10] = system: SR leukemia
smiles,measurement,setting,value
COC(=O)c1c(O)ccc(O)c1C(C(C)=O)C(C)=O,TGI,[1],> 100 µM
same,TGI,[2],> 100 µM
same,TGI,[3],> 100 µM
same,TGI,[4],> 100 µM
same,TGI,[5],> 100 µM
same,TGI,[6],> 100 µM
same,TGI,[7],> 100 µM
same,TGI,[8],> 100 µM
same,TGI,[9],> 100 µM
CC1OC(n2cc(C(F)(F)F)c(=O)[nH]c2=O)C=CC1=O (stereo unspecified),TGI,[1],47 µM
same,TGI,[10],33.3 µM
same,TGI,[3],31.9 µM
same,TGI,[4],38.8 µM
same,TGI,[5],80 µM
same,TGI,[6],47.5 µM
same,TGI,[8],35.3 µM
same,TGI,[9],48.6 µM
COc1ccc(CN2C(=O)[C@@H]3Cc4c(OC)c(C)c(OC)c(OC)c4[C@H](/C2=C\c2cc(OC)c(OC)c(C)c2OC)N3C(=O)OC(C)C)cc1,TGI,[2],> 100 µM
same,TGI,[10],> 100 µM
same,TGI,[3],> 100 µM
same,TGI,[4],> 100 µM
same,TGI,[5],> 100 µM
same,TGI,[6],> 100 µM
same,TGI,[7],> 100 µM
same,TGI,[8],> 100 µM
same,TGI,[9],> 100 µM
Cc1ccc2c(c1)-c1c3c(nn1C)-c1ccccc1SC3O2 (stereo unspecified),TGI,[2],> 100 µM
same,TGI,[3],> 100 µM
same,TGI,[4],> 100 µM
same,TGI,[5],> 100 µM
same,TGI,[7],> 100 µM
same,TGI,[8],> 100 µM
same,TGI,[9],> 100 µM
O=C1/C(=C\c2ccc(F)cc2)CN(C(=O)c2ccccc2F)C/C1=C\c1ccc(F)cc1,GI50,[1],1.05 µM
same,TGI,[1],2.58 µM
same,GI50,[2],2.02 µM
same,TGI,[2],6.71 µM
same,GI50,[10],0.32 µM
same,TGI,[10],3.03 µM
same,GI50,[3],1.67 µM
same,TGI,[3],3.11 µM
same,GI50,[4],1.71 µM
same,TGI,[4],3.47 µM
same,GI50,[5],1.72 µM
same,TGI,[5],5.14 µM
same,GI50,[6],1.46 µM
same,TGI,[6],3.05 µM
same,GI50,[8],1.97 µM
same,TGI,[8],4.27 µM
same,GI50,[9],2.51 µM
same,TGI,[9],6.71 µM
